Data published in patent publication US9464080B2, “Substituted pyrido[2,3-d]pyrimidines for dry skin and anti-ageing application” (L'OREAL, priority 2012, dated 2016).

Tests used:
Type in all cases: cell-based
CD44 = CD44 immunolabelling of treated Episkin reconstructed epidermis; conditions: for CD44: Episkin, systemic treatment over 5 days, effect generally rated for the highest concentration used (10 μM)
Procedure: (§1) The reconstructed epidermises, received from the Episkin company at six days of reconstruction, were placed back into culture, when received, in 3.5 ml of differentiation medium (Episkin™ medium) under insert (in emersion) in an incubator for 48 hours (37° C., 5% CO2).
(§2) The epidermises were subsequently contacted with the test compounds systemically. The Episkin™ differentiation culture medium is replaced by a differentiation medium containing the test compounds with 0.1% of final DMSO vehicle. The epidermises were placed back into culture in the incubator for 48 hours. A new systemic treatment is carried out for a further 72 hours in culture in the incubator.
For the treatment on Episkin™, each test compound was prepared at the time of use by being weighed out and dissolved at 10 mM in DMSO, then used to treat 3 samples of reconstructed epidermis. Furthermore, each compound under test was employed at a final 1 and […] in the culture medium (0.1% final DMSO). The positive controls used were vitamin D3, retinol and calcipotriol (a vitamin D3 analogue).
(§3) The epidermises were withdrawn (3 epidermises per treatment) for histological analysis and protein extracts (a single reconstructed epidermis is used for the histological study and the protein extract).
The samples of epidermis were enclosed in OCT for freezing in liquid nitrogen and then stored at −80° C. The resulting blocks were cut to a thickness of 7 μm using a cryostat, and the slices were dried and stored at −20° C. while awaiting immunolabelling.
The labels selected for the immunolabelling are as follows: • Ki67 to provide information on any change in cell proliferation in the basal layer, and • CD44 to provide information on any change in the metabolism of the living layers and in the proliferation/differentiation balance.

[1] = tested on: Episkin™ reconstructed epidermis; assay: HES morphological observation of treated Episkin reconstructed epidermis; conditions: systemic treatment over 5 days
Procedure: as §1, §2
(§4) For the treatment on Episkin™, each test compound was prepared at the time of use by being weighed out and dissolved at 10 mM in DMSO, then used to treat 3 samples of reconstructed epidermis. […] The positive controls used were vitamin D3, retinol and calcipotriol (a vitamin D3 analogue).
as §3
Morphological control of the reconstructed epidermises treated was carried out using HES (Hematoxylin—Eosin—Saffron) staining in accordance with a standard protocol on the histological sections of the samples enclosed in paraffin (toluene bath: thrice 15 minutes; 100° alcohol baths; twice one minute; 95° alcohol baths: one minute; rinsing in water baths; hematoxylin bath: once 2 minutes; rinsing in water baths; brief immersion in a hydrochloric acid bath; rinsing with water; eosin bath: once one minute; rinsing with water; brief immersion in a 100° alcohol bath; saffron bath (5 minutes); brief immersion in a 100° alcohol bath; toluene bath: thrice 2 minutes).

Ki67 = Ki67 immunolabelling of treated Episkin reconstructed epidermis
Procedure: as §1, §2, §4, §3
The samples of epidermis were enclosed in OCT for freezing in liquid nitrogen and then stored at −80° C. […]

[2] = effect generally rated for the highest concentration used (10 μM)

| Structure (SMILES) | CD44 (CD44) | HES [1, 2] | Ki67 labelling (Ki67; Episkin samples treated, FIG. 2) | CD44 immunolabelling (CD44; Episkin samples treated, FIG. 3) | Ki67 (Ki67; Episkin, systemic treatment over 5 days, 100 μM) | HES ([1]; 100 μM) |
| --- | --- | --- | --- | --- | --- | --- |
| CCOC(=O)C1=C(C)Nc2c(c(=O)n(C)c(=O)n2C)C1c1cccc(Oc2ccccc2)c1 (stereo not drawn) [Compound (2)] | 0 | 0 |  |  |  |  |
| CCOC(=O)C1=C(C)Nc2c(c(=O)n(C)c(=O)n2C)C1CC(C)C (stereo not drawn) [Compound (4)] | ++ (*) | 0 | strong increase in Ki67 labelling | increase in CD44 |  |  |
| CC1=C(/C=C/C(C)=C/C=C/C(C)=C/CO)C(C)(C)CCC1 [Retinol, retinol, reference compound] |  |  |  |  | 0 | 0 |
| C=C1CC[C@H](O)C/C1=C/C=C1\CCC[C@]2(C)[C@@H]([C@H](C)CCCC(C)C)CC[C@@H]12 [Vitamin D3, vitamin D3, reference compound] |  | 0 |  |  |  |  |
